Measurements published in patent US8735406B2, “8-oxodihydropurine derivative” (Dainippon Sumitomo Pharma Co., Ltd., priority 2009, dated 2014).
Where two headings read alike, the source gives them in different places.

Biological target: T1, FAAH (Rattus norvegicus, UniProt P97612)
T1 construct: Preparation of Rat Brain Membranes Preparations (FAAH Enzyme Solution); from tissue; host or cells: rat cerebrum (brain membrane preparation)
T1 sequence (P97612 1-579): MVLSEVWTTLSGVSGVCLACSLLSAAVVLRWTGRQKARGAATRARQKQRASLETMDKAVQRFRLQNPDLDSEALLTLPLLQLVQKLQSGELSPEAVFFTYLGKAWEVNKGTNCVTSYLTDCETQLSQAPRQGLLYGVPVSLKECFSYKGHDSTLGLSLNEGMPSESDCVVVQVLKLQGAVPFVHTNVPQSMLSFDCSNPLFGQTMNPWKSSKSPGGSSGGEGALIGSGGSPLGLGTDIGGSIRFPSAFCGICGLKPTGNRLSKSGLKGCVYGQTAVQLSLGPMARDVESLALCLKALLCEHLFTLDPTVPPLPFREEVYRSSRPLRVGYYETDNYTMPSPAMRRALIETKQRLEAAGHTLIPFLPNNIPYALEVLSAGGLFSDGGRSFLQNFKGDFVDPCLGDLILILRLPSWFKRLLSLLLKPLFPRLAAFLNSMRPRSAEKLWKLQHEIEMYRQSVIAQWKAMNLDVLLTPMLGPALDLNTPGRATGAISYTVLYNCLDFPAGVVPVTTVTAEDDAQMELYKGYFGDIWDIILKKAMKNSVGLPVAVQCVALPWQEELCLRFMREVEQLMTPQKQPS
Assay: Determination of FAAH inhibitory activity in rat (rat brain membrane preparations, [3H]-anandamide hydrolysis)
Assay type: biochemical
Conditions: rat brain membrane preparations; for IC50: read-out: FAAH Inhibition IC50
In short: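 Rat cerebrum membranes (100 μg/mL protein) preincubated 10 min at 37 °C with compound (1% DMSO) in pH 7.6 Tris buffer with 1.5% BSA. Substrate 2 nM [3H]-anandamide plus 2 μM anandamide added for 10 min at 37 °C. [3H]-ethanolamine in the aqueous phase after chloroform/methanol extraction was scintillation counted; IC50 over 0.1 nM–1 μM.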

[1] = 100 nM test substance, read-out: FAAH Inhibition, Inhibition Rate at 100 nM
[2] = at 100 nM, read-out: FAAH Inhibition Inhibition Rate at 100 nM

`Cn1c(=O)n(C(=O)N2CCC2)c2nc(CCc3cccc(C4CC4)c3)ncc21` [compound 572] showed an inhibition at 0.1 µM [1] of 83% and an IC50 (test substance 0.1 nM to 1 μM) of 99 nM.
`Cn1c(=O)n(C(=O)N2CCC2)c2nc(CCc3ccc(C4CC4)cc3)ncc21` [compound 573] showed an inhibition at 0.1 µM [1] of 99% and an IC50 (test substance 0.1 nM to 1 μM) of 16 nM.
For `Cn1c(=O)n(C(=O)N2CCC2)c2nc(CCc3ccc(Cl)cc3)ncc21` [compound 575], the inhibition at 0.1 µM [1] was 102% and the IC50 (test substance 0.1 nM to 1 μM) was 10 nM.
With `Cc1ccccc1CCc1ncc2c(n1)n(C(=O)N1CCC1)c(=O)n2C` [compound 591] the inhibition at 0.1 µM [1] was 57% and the IC50 (test substance 0.1 nM to 1 μM) was 75 nM.
Compound `Cn1c(=O)n(C(=O)N2CCC2)c2nc(CCc3cccc(C(F)F)c3)ncc21` [compound 594] has an inhibition at 0.1 µM [1] of 84% and an IC50 (test substance 0.1 nM to 1 μM) of 21 nM.
`Cn1c(=O)n(C(=O)N2CCC2)c2nc(CCc3ccc(C(F)(F)F)cc3)ncc21` [compound 597] gave an inhibition at 0.1 µM [1] of 92% and an IC50 (test substance 0.1 nM to 1 μM) of 10 nM.
`CCOc1cccc(CCc2ncc3c(n2)n(C(=O)N2CCC2)c(=O)n3C)c1` [compound 604] was tested, and the inhibition at 0.1 µM [2] was 92% and the IC50 was 15 nM.
`Cn1c(=O)n(C(=O)N2CCC2)c2nc(CCc3ccc(OC(F)(F)F)cc3)ncc21` [compound 609] gave an inhibition at 0.1 µM [2] of 108% and an IC50 of 4 nM.
Work on `Cn1c(=O)n(C(=O)N2CC(c3ccc(F)cc3)C2)c2cnc(C3CC3)nc21` [compound 621] yielded an inhibition at 0.1 µM [2] of 78% and an IC50 of 10 nM.
`Cn1c(=O)n(C(=O)N2CC(c3cccc(F)c3)C2)c2cnc(C3CC3)nc21` [compound 622] was tested, and the inhibition at 0.1 µM [2] was 116% and the IC50 was 1 nM.
Work on `Cn1c(=O)n(C(=O)N2CC(c3ccccc3)C2)c2cnc(C3CC3)nc21` [compound 623] yielded an inhibition at 0.1 µM [2] of 87% and an IC50 of 3 nM.
For `CCCc1ncc2c(n1)n(C)c(=O)n2C(=O)N1CC(c2ccc(F)cc2)C1` [compound 624], the inhibition at 0.1 µM [2] was 97% and the IC50 was 18 nM.
Compound `CCCc1ncc2c(n1)n(C)c(=O)n2C(=O)N1CC(c2cccc(F)c2)C1` [compound 625] has an inhibition at 0.1 µM [2] of 104% and an IC50 of 7 nM.
`CCCc1ncc2c(n1)n(C)c(=O)n2C(=O)N1CC(c2ccccc2)C1` [compound 626] was tested, and the inhibition at 0.1 µM [2] was 128% and the IC50 was 4 nM.
Compound `CCc1ncc2c(n1)n(C)c(=O)n2C(=O)N1CC(c2ccccc2)C1` [compound 627] has an inhibition at 0.1 µM [2] of 107% and an IC50 of 4 nM.
`CCc1ncc2c(n1)n(C)c(=O)n2C(=O)N1CC(c2ccc(F)cc2)C1` [compound 628] gave an inhibition at 0.1 µM [2] of 90% and an IC50 of 10 nM.
Compound `CN(C)C(=O)n1c(=O)n(C)c2cnc(CCOc3cccc(F)c3)nc21` [compound 639] has an inhibition at 0.1 µM [2] of 76% and an IC50 of 27 nM.
In the case of `CN(C)C(=O)n1c(=O)n(C)c2cnc(CCOc3ccc(Cl)cc3)nc21` [compound 640], the inhibition at 0.1 µM [2] is reported as 95% and the IC50 is reported as 12 nM.
Compound `CN(C)C(=O)n1c(=O)n(C)c2cnc(CCOc3cccc(C(F)(F)F)c3)nc21` [compound 642] has an inhibition at 0.1 µM [2] of 89% and an IC50 of 9 nM.
`CN(C)C(=O)n1c(=O)n(C)c2cnc(Cc3ccccc3Cl)nc21` [compound 652] showed an inhibition at 0.1 µM [2] of 60% and an IC50 of 31 nM.
`CN(C)C(=O)n1c(=O)n(C)c2cnc(Cc3ccc(Cl)cc3)nc21` [compound 653] gave an inhibition at 0.1 µM [2] of 108% and an IC50 of 11 nM.
Work on `COCc1ncc2c(n1)n(C1CC1)c(=O)n2C(=O)N1CC(c2ccccc2)C1` [compound 663] yielded an inhibition at 0.1 µM [2] of 88% and an IC50 of 24 nM.
Compound `COCc1ncc2c(n1)n(C1CC1)c(=O)n2C(=O)N1CC(c2ccc(F)cc2)C1` [compound 664] has an inhibition at 0.1 µM [2] of 102% and an IC50 of 10 nM.
`COCc1ncc2c(n1)n(C1CC1)c(=O)n2C(=O)N1CC(c2cccc(F)c2)C1` [compound 665] gave an inhibition at 0.1 µM [2] of 99% and an IC50 of 7 nM.
